# Measurements from patent publication US20090105189A1, “METHODS AND COMPOSITIONS FOR AMELIORATING OR INHIBITING DECLINE IN MEMORY OR INTELLIGENCE OR IMPROVING SAME” (priority 2006, published 2009).
# How the values were obtained:
# [1] = Body weight of rats on UMP-supplemented diet; format: in vivo, rat
# From the text: Animals were weighed weekly to ensure that UMP-treated and untreated rats were eating equivalent amounts of food. […] Also, there was no difference in body weight between the EC and IC groups.
# [2] = Brain CDP-choline levels after oral UMP in gerbils; format: in vivo, gerbil; conditions: UMP 1 mmole/kg by gavage, for 30 min after administration
# Procedure: Brain tissue or cells was dissolved in methanol/chloroform (1:2 vol/vol), centrifuged, and the aqueous phase was dried under vacuum, resuspended in 100-200 μL water and separated by HPLC on an ion-exchange column (Alltech Hypersil APS-2, 5 μM, 250×4.6 mm). CDP-choline was eluted with a linear gradient of NaH2PO4 buffers A (1.75 mM NaH2PO4, pH 2.9) and B (500 mM, pH 4.5), which allowed resolution of CDP-choline from closely co-eluting substances such as UMP over 40 min. The retention time for CDP-choline was 9.5 min. Individual nucleotide peaks were detected by UV absorption at […], and were identified by comparison with the positions of authentic standards, as well as by the addition of nucleotide standards to selected samples.
# [3] = tested on: Sprague Dawley rats; assay: Hidden platform water maze and probe test in EC and IC rats on UMP diet; format: in vivo, rat; conditions: for Rate of acquisition of hidden platform water maze task: 0.1% UMP-2Na+ diet 3 months
# Procedure: (§1) Behavioral training was carried out between 10:00 AM-2:00 PM, in a blinded manner. Rats received a 4-d training session consisting of 4 trials (i.e., swims) per day to locate the hidden platform (1.5 cm below the water surface), which remained in the same position across trials for individual animals (i.e. within one of 4 quadrants). On each trial the animal was placed into the tank facing the wall at one of 4 designated start points (N, S, E, and W) and allowed to escape onto the hidden platform. A different starting point was used on each trial such that each starting point was used once each day. […] After mounting the platform, rats remained on the platform for 20 seconds. Following each trial, animals were removed from the maze and placed in a holding cage for a 30 second inter-trial interval (ITI). The latency to mount the escape platform was used as a measure of task acquisition.
# (§2) On day 5, the rats were given a probe test. For this, the platform was removed and the swim path and time spent searching in the quadrant of the pool that previously contained the platform were measured over 60 s. This provides a measurement for the retention of spatial memory and indicates whether a spatial strategy was used during hidden platform training.
# [4] = tested on: gerbils; assay: Food pellet learning assay (radial arm maze) in gerbils; format: in vivo, gerbil; conditions: young adult gerbils, 0.1, 0.5 or 2.5% UMP chow, three weeks
# Procedure: Male young adult gerbils fed control or UMP-containing chow (0, 0.1, 0.5 or 2.5%) ad lib for three weeks were tested in a radial arm maze, consisting of a central chamber with four branches primed with a small food pellet at the end of each. Before testing, animals were fasted overnight; each animal was then placed in the central chamber and allowed up to 180 seconds to find all of the pellets. A shorter time required to find the pellets is indicative of improved learning and spatial memory.
# [5] = tested on: gerbils; assay: Working memory and reference memory assay (modified radial arm maze) in gerbils; format: in vivo, gerbil; conditions: 0.1% UMP diet, four weeks
# From the text: Groups of ten gerbils fed control or 0.1% UMP diet for four weeks and trained to successfully find all of the food pellets as described above were then given a modified test, in which only two arms of the maze (but always the same two) contained food pellet rewards. In this test, a working memory error is one in which a gerbil revisits an arm from which it has already taken the pellet that day.
# [6] = tested on: Aging rats; assay: Morris water maze in aging rats on UMP diet; format: in vivo, rat; conditions: aging rats 18 months, 2.5% diet, six weeks
# From the text: Aging rats (I 8 months, 500 g) were fed a control diet or a diet containing 2.5% UMP diets for six weeks. They were then shown a hidden platform in a six-foot diameter pool of water, placed somewhere in each of the four quadrants of the pool in turn, and were allowed 90 seconds in each trial to attempt to relocate the platform by swimming, and the swimming time “mean escape latency” recorded. The set of four trials was repeated on each of four consecutive days. The platform was in the same place each day. This test, known as the Morris water maze, is an indicator of spatial memory.
# [7] = tested on: Sprague Dawley rats; assay: Visible platform water maze task in EC and IC rats on UMP diet; format: in vivo, rat; conditions: UMP-supplemented diet
# From the text: Four starting positions (north, south, east, west) were spaced around the perimeter of the tank, dividing the pool into four equal quadrants. For the visible platform version of the water maze, a white rubber ball (8 cm in diameter) was attached to the top of the submerged platform and protruded above the water surface. The platform could be used as a step to mount the ball to escape the water. A video camera was mounted directly above the water maze; this camera was linked to a computer with video tracking software to automatically record the escape latency (time to reach the platform), distance traveled (length of swim path taken to find the platform), and swim speed (HVS Image Ltd; Buckingham, UK). One week after completion of the 4-day/4 trials per day spatial training task, the rats from the above Example received 4 training sessions consisting of 4 trials (i.e., swims) per day. On each trial the animal was placed into the tank facing the wall at one of four designated start points (N, S, E, and W) and allowed to escape onto the visibly cued platform. A different starting point was used on each trial such that each starting point was used each day. In addition, the visible escape platform was placed in a different quadrant on each trial such that each of the four quadrants contained the escape platform once each day. […]
# [8] = Plasma uridine levels after oral UMP in healthy human subjects; format: in vivo; conditions: humans, oral UMP 500, 1000 or 2000 mg; baseline and 1, 2, 4, 8 hr
# Procedure: 1-milliliter (mL) samples of heparinized plasma were spiked with 1 μg fluoro-uridine for use as an internal standard, then deproteinized by adding methanol (5 mL).
# All steps were performed at 4° C. Boronate affinity columns (Affigel-601, Bio-Rad) were primed with two 5-mL ammonium acetate washes, samples were applied, and columns were washed again with ammonium acetate, after which the nucleosides were eluted with 0.1 N formic acid (7 mL). Eluates were lyophilized, then reconstituted in 100 μL water for HPLC analysis.
# HPLC analysis was performed using a Beckman System Gold apparatus (Beckman Instruments) equipped with a Rainin Dynamax Microsorb C18 column (3 μm packing; 4.6×100 mm) at room temperature. The standard HPLC method is described in Lopez-Coviella et al, (J. Neurochem 65: 889-894, 1995). For modified HPLC, an isocratic elution buffer was used containing 0.004 N potassium phosphate buffer (pH 5.8) and 0.1% methanol instead of formic acid, flowing at 1 mL/min and heated to 35°.
# Eight healthy subjects (5 male, 3 female, 27-67 years old) were instructed to fast overnight and given sequentially increasing doses (500, 1000, and 2000 mg) of disodium UMP (Numico, Wageningen, NL) at 7-8 AM on each of three days, separated by at least a three-day washout period. All subjects were given lunch. Blood samples were drawn over an eight-hour period into heparinized tubes. […]
# [9] = tested on: Fischer 344 rats; assay: In vivo microdialysis of striatal neurotransmitter release in aged rats on UMP diet; design: species or system rat; conditions: for K+-evoked striatal DA release (basal = 100%): control 283±9%
# [10] = tested on: rats; conditions: EC and IC rats, choline-supplemented vs control diet
# From the text: (§3) Animals were maintained as described for Example 13. For the first experiment (FIGS. 24-26), male pups were removed at postnatal d 23, separated into small groups, and allowed to acclimatize for 1 week. Pups were assigned to either the […] or IC condition; rats were matched according to body weight at PN day 23. […] Thus rats were fed the diets and were enriched or impoverished from 30-120 d of age.
# (§4) The water maze was a black circular tank 1.83 m in diameter and 0.55 m in height, filled with water (25 C) to a depth of 20 cm and located in a room containing several extramaze cues. Four starting positions (N, S, E, and W) were spaced around its perimeter, dividing the pool into 4 equal quadrants. The rectangular clear Plexiglas escape platform used for the spatial task (11×14×19 cm) was submerged at a depth of […]. For the cured version of the water maze, a white rubber ball 8 cm in diameter attached to the top of the submerged platform protruded above the water surface. The platform could be used as a step to mount the ball to escape from the water.
# [11] = tested on: rats; conditions: IC rats
# Procedure: as §1, §2, §3
# For the second experiment, 4 groups of IC rats were utilized, as depicted below:
# Four diets were prepared containing different amounts of CDP-choline. Mean weekly intakes were monitored for all rats, and the diets were adjusted so that rats would receive 500 mg/kg/d.
# as §4
# [12] = aged rats, UMP diet 1 week or 6 weeks vs control
# [13] = 500 mg/kg/d for 3 mo, 4 d of training
compound,measurement,setting,value
"O=c1ccn([C@@H]2O[C@H](COP(=O)([O-])[O-])[C@@H](O)[C@H]2O)c(=O)[nH]1.[Na+].[Na+] [UMP, uridine-5′-monophosphate disodium]",Mean body weights,"[1]; Sprague Dawley EC/IC rats, 0.1% UMP-2Na+ diet, vs control groups",No significant differences in mean body weights
same,Body weight,"[1]; aged Fischer 344 rats, 2.5% UMP-2Na+ diet, 0-6 weeks",neither UMP-diet (vs. control) nor UMP×time interaction affected body weight
same,Brain CDP-choline levels,[2],rose significantly in a linear fashion
same,Rate of acquisition of hidden platform water maze task,"[3]; EC rats, vs EC-CONT (P<0.09)",acquired the task at a faster rate than EC-CONT rats
same,Rate of acquisition of hidden platform water maze task,"[3]; IC rats, vs IC-CONT",acquired the task at a significantly faster rate than did IC-CONT rats
same,"Time in the correct quadrant, 60 s probe test","[3]; IC rats, UMP diet, vs IC-CONT",spent significantly more time in the correct quadrant than IC-CONT rats
same,"Time required to find the food pellets, radial arm maze",[4],reduced the time required for gerbils to find the pellet in a dose-dependent manner
same,Reference memory errors,[5],reduced numbers
same,Working memory errors,[5],reduced numbers
same,"Time required to reach the platform (mean escape latency), Morris water maze",[6],statistically significant reduction in the time required to reach the location of the platform
same,"Striatal-based (stimulus-response) memory, visible platform water maze",[7],little or no effect
same,Plasma uridine levels,[8],increased in response to oral UMP in a dose-dependent fashion
same,Basal DA levels in striatal dialysate,"[9]; aged rats, 2.5% UMP diet 1 or 6 weeks vs control",did not affect
same,K+-evoked striatal DA release (basal = 100%),"[9]; aged rats, 2.5% UMP diet 1 week, not significant",316±15%
same,K+-evoked striatal DA release (basal = 100%),"[9]; aged rats, 2.5% UMP diet 6 weeks",341±21%
same,Basal DOPAC levels in striatal dialysate,[9]; [12],no effects
same,Basal HVA levels in striatal dialysate,[9]; [12],no effects
same,Basal release of acetylcholine in corpus striatum,"[9]; rats, dietary UMP",increase the basal release
cytidine-diphosphocholine,"Escape latencies, visible platform task",[10],No main effects of diet
same,Escape latencies of initial trials on last 3 d of spatial training,[11]; 500 mg/kg/d for 3 mo,restored normal behavior
same,"Swim time in target quadrant, 60-sec probe test",[11]; 500 mg/kg/d for 3 mo,restored normal behavior
same,Distance traveled to find the hidden platform,[11]; [13],restored normal behavior
same,"Escape latencies, hidden platform task",[11]; [13],exhibited normal latencies
same,"Escape latencies, hidden platform task (second experiment)",[11]; high-choline diet for 3 mon vs untreated IC rats,different significantly from untreated IC rats
same,"Swim time in target quadrant, 60-sec probe test (second experiment)",[11]; high-choline diets for 3 mon,swam for a significantly longer time in the target quadrant
